According to ChEMBL document CHEMBL4725246, “Design, synthesis, and evaluation of a novel macrocyclic anti-EV71 agent” (Bioorg Med Chem, 2020):

Assays:
Enterovirus A71 [1] = assay: Antiviral activity against Enterovirus A71 SK-EV006 measured after 3 to 4 days by cell based assay; assay type: functional, organism-based; conditions: Enterovirus A
Enterovirus A71 [2] = assay: Antiviral activity against Enterovirus A71 Shenzhen/120F1/09 infected in human RD cells assessed as […] measured after 72 hrs post-infection by CCK-8 assay; assay type: functional, organism-based; conditions: Enterovirus A, Shenzhen/120F1/09, RD
[3] = Stability in CD-1 mouse plasma assessed as parent compound remaining upto 120 mins by LC-MS analysis; assay type: ADME, cell-free; conditions: read-out: Stabilty

EC50 (Enterovirus A71 [1]) | remaining at 2 h [3] | Structure (SMILES) | EC50 (Enterovirus A71 [2])
108 nM |  | Cc1cc(C(=O)N[C@@H](Cc2ccc(F)cc2)C(=O)N[C@H](C=O)C[C@@H]2CCCNC2=O)no1 | 
 | 5.6% | Cc1cc(C(=O)N[C@H](C(=O)NC2C(=O)N[C@@H](CC3CCNC3=O)/C=C/C(=O)OC/C=C/CCOC2c2ccccc2)C(C)C)no1 (stereo partly drawn) | 4500 nM
